Measured values: patent US11028072B2, “2,4-diamino-6-ethylpyrimidine derivatives with antimalarial activities against Plasmodium falciparum” (National Science and Technology Development Agency, priority 2015, dated 2021)
Counter-ions that a name gives are not always drawn.

SMILES	melting point [°C]
CCc1nc(N)nc(N)c1-c1cn(CCOc2ccc(Cl)cc2)nn1 (as salt: hydrochloride) [Compound 9]	173.5 to 175
CCc1nc(N)nc(N)c1OCc1cc(-c2ccc(Cl)cc2)no1 (as salt: hydrochloride) [Compound 35]	230 to 231.5
CCc1nc(N)nc(N)c1-c1cn(-c2ccccc2)nn1 (as salt: hydrochloride) [Compound 1]	273.2 to 274.5
CCc1nc(N)nc(N)c1OCc1csc(-c2cccc(OCC(=O)O)c2)n1 (as salt: hydrochloride) (hydrate or solvate) [Compound 64]	191 to 193
CCc1nc(N)nc(N)c1OCc1cc(-c2ccc([N+](=O)[O-])cc2)no1 (as salt: hydrochloride) [Compound 43]	216 to 218
CCc1nc(N)nc(N)c1OCc1cn(-c2cccc([N+](=O)[O-])c2)nn1 (as salt: hydrochloride) [Compound 14]	236 to 237
CCc1nc(N)nc(N)c1OCCCc1cc(-c2ccc(Cl)cc2)no1 (as salt: hydrochloride) [Compound 45]	231.5 to 232.5
CCc1nc(N)nc(N)c1OCc1csc(-c2ccc(F)cc2)n1 (as salt: hydrochloride) [Compound 69]	226 to 227
CCc1nc(N)nc(N)c1OCc1coc(-c2ccc(OCC(=O)OCc3ccccc3)cc2)n1 (as salt: hydrochloride) (hydrate or solvate) [Compound 56]	191.5 to 192.5
CCc1nc(N)nc(N)c1OCc1cc(-c2cccc(OC)c2)no1 (as salt: hydrochloride) [Compound 38]	211.5 to 212.5
CCc1nc(N)nc(N)c1OCCCc1cc(-c2cccc(C#N)c2)no1 (as salt: hydrochloride) [Compound 47]	252 to 253
CCc1nc(N)nc(N)c1OCc1coc(-c2ccccc2)n1 (as salt: hydrochloride) [Compound 50]	231 to 232
CCc1nc(N)nc(N)c1OCCc1cn(Cc2ccc(O)cc2)nn1 (as salt: hydrochloride) [Compound 30]	213 to 215
CCc1nc(N)nc(N)c1OCc1csc(-c2cccc(OCC(=O)OCc3ccccc3)c2)n1 (as salt: hydrochloride) (hydrate or solvate) [Compound 63]	175 to 177
CCc1nc(N)nc(N)c1OCc1csc(-c2ccc(Br)cc2)n1 (as salt: hydrochloride) [Compound 71]	236 to 238
CCc1nc(N)nc(N)c1OCc1cc(-c2ccc(F)cc2)no1 (as salt: hydrochloride) [Compound 34]	231 to 232
CCc1nc(N)nc(N)c1OCCCc1cn(Cc2ccc(C(=O)O)cc2)nn1 (as salt: hydrochloride) [Compound 32]	211 to 212.5
CCc1nc(N)nc(N)c1-c1cn(Cc2ccc(C(=O)O)cc2)nn1 (as salt: hydrochloride) [Compound 5]	270 to 272
CCc1nc(N)nc(N)c1OCc1coc(-c2ccc(OCC(=O)O)cc2)n1 (as salt: hydrochloride) (hydrate or solvate) [Compound 57]	195.5 to 197.5
CCc1nc(N)nc(N)c1OCc1csc(-c2ccc(C)cc2)n1 (as salt: hydrochloride) [Compound 67]	235 to 236
CCc1nc(N)nc(N)c1OCCc1coc(-c2ccccc2)n1 (as salt: hydrochloride) [Compound 58]	254.5 to 255.5
CCc1nc(N)nc(N)c1-c1cn(CCOc2ccc(C(=O)OC)cc2)nn1 (as salt: hydrochloride) [Compound 10]	225 to 226
CCc1nc(N)nc(N)c1OCc1coc(-c2cccc(OCC(=O)O)c2)n1 (as salt: hydrochloride) (hydrate or solvate) [Compound 54]	203 to 204
